Laboratory results: patent publication US10377791B2, “Therapeutically active estratrienthiazole derivatives as inhibitors of 17 B-hydroxysteroid dehydrogenase, type 1” (FORENDO PHARMA LTD, priority 2013, dated 2019)
Several values for one entry are separate records, joined by “and”; a condition that tells them apart may be missing. Identical values can stand only once. Counter-ions that a name gives are not always drawn.

How the values were obtained:
[1] = biological target: T1, recombinant human 17β-HSD1 (Homo sapiens, UniProt P14061); test: Inhibition of recombinant human 17β-HSD1; type: biochemical; settings: inhibitor at 1 μM, 30 nM estrone, 1 mM NADPH, 30 min at RT; for inhibition at 1 µM: read-out: 17β-HDS1 Inhibition % at 1 μM
T1 construct: made in house; host or cells: Sd9 (Sf9) insect cells, baculovirus (Bac to Bac Expression System)
T1 sequence (P14061 1-328): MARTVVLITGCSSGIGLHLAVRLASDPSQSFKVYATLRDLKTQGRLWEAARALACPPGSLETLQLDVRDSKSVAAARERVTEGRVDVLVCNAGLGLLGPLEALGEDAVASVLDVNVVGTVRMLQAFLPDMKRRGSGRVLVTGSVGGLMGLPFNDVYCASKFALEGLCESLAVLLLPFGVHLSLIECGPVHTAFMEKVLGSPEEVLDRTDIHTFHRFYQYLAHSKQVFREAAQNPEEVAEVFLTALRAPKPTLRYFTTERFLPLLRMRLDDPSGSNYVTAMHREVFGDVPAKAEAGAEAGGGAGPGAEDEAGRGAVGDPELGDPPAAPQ
How it was run: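 Microsomal enzyme from baculovirus-infected insect cells (1 μg/ml) incubated 30 min at RT in 20 mM KH2PO4 pH 7.4 with 30 nM ³H-estrone and 1 mM NADPH, inhibitor at 1 μM or 0.1 μM, 1% DMSO. TCA-stopped; estrone/estradiol separated by radio-HPLC; % inhibition = 100 − % conversion.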

[2] = human, tissue homogenate, 1 h
Procedure: The in vitro metabolic stability of the compounds of the invention was determined for exemplified compounds using human liver microsome and homogenate incubations. The incubation time points used with or without appropriate cofactors were 0 min and 60 min. Samples were collected at both time points and substrates were detected using LC/PDA/TOF-MS.

[3] = biological target: T2, recombinant human 17β-HSD2 (Homo sapiens, UniProt P37059); test: Inhibition of recombinant human 17β-HSD2; type: biochemical; settings: inhibitor at 1 μM, 50 nM estradiol, 1 mM NADH, 30 min at RT; for inhibition at 1 µM: read-out: 17β-HSD2 Inhibition % at 1 μM
T2 construct: made in house; host or cells: Sd9 (Sf9) insect cells, baculovirus (Bac to Bac Expression System)
T2 sequence (P37059 1-387): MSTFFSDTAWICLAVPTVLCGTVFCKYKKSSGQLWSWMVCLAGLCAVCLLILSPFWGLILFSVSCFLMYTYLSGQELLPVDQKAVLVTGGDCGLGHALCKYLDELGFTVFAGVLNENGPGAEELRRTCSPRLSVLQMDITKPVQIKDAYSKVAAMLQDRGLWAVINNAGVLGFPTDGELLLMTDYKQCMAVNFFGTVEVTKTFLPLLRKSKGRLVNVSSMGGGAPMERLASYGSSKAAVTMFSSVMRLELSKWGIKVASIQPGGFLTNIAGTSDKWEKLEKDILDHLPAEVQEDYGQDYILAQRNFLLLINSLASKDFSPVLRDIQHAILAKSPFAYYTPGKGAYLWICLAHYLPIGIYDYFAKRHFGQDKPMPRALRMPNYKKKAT
How it was run: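 Membrane extract of baculovirus-expressed enzyme in Sf9 cells (4 μg/ml) incubated in 20 mM KH2PO4 pH 8.5 with 50 nM estradiol (³H-tracer) and 1 mM NADH, 30 min at RT, 1% DMSO, inhibitor at 1 μM or 0.1 μM. TCA-stopped; estradiol-to-estrone conversion by radio-HPLC; % inhibition = 100 − % conversion.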

Row | Structure (SMILES) | inhibition at 1 µM [1] [%] | In vitro metabolic stability, % remaining after 60 min [2] [%] | inhibition at 1 µM [3] [%] | 17β-HDS1 Inhibition % at 1 μM [1] [%] | 17β-HSD2 Inhibition % at 1 μM [3]
1 | Cc1cnc(NC(=O)CC[C@@H]2CC(=O)[C@@]3(C)CCC4c5cc6ncoc6cc5CCC4C23)s1 (stereo partly drawn) [Compound 47, 3-((3R,12aS)-12a-methyl-1-oxo-2,3,3a,3b,4,5,10b,11,12,12a-decahydro-1H-cyclopenta[7,8]phenanthro[3,2-d]oxazol-3-yl)-N-(5-methylthiazol-2-yl)propanamide] | 87 | 48 | 2 |  | 
2 | Cc1cnc(NC(=O)CC[C@@H]2CC(=O)[C@@]3(C)CCC4c5ccc(OS(=O)(=O)O)cc5CCC4C23)s1 (stereo partly drawn) [Compound 5, Sulphuric acid mono-{(13S,15R)-13-methyl-15-[2-(5-methylthiazol-2-ylcarbamoyl)-ethyl]-17-oxo-7,8,9,11,12,13,14,15,16,17-decahydro-6H-cyclopenta[a]phenanthren-3-yl} ester triethylamine salt] | 92 | 50 | 4 |  | 
3 | Cc1cnc(NC(=O)CC[C@@H]2CC(=O)[C@@]3(C)CCC4c5ccc(OC(=O)C(C)(C)C)cc5CCC4C23)s1 (stereo partly drawn) [Compound 3, 2,2-Dimethyl-propionic acid (13S,15R)-13-methyl-15-[2-(5-methylthiazol-2-ylcarbamoyl)-ethyl]-17-oxo-7,8,9,11,12,13,14,15,16,17-decahydro-6H-cyclopenta[a]phenanthren-3-yl ester] |  | 30 |  |  | 
4 | Cc1cnc(NC(=O)CC[C@@H]2CC(=O)[C@@]3(C)CCC4c5ccc(OCc6ccccc6)cc5CCC4C23)s1 (stereo partly drawn) [Compound 30, 3-((13S,15R)-3-Benzyloxy-13-methyl-17-oxo-7,8,9,11,12,13,14,15,16,17-decahydro-6H-cyclopenta[a]phenanthren-15-yl)-N-(5-methylthiazol-2-yl)propanamide] |  | 74 |  |  | 
5 | Cc1cnc(NC(=O)CC[C@@H]2CC(=O)[C@@]3(C)CCC4c5ccc(OS(C)(=O)=O)cc5CCC4C23)s1 (stereo partly drawn) [Compound 2, Methanesulphonic acid (13S,15R)-13-methyl-15-[2-(5-methylthiazol-2-ylcarbamoyl)-ethyl]-17-oxo-7,8,9,11,12,13,14,15,16,17-decahydro-6H-cyclopenta[a]phenanthren-3-yl ester] | 95 | 25 | 11 |  | 
6 | Cc1cnc(NC(=O)CC[C@@H]2CC(=O)[C@@]3(C)CCC4c5ccccc5CCC4C23)s1 (stereo partly drawn) [Compound 83, 3-((13S,15R)-13-methyl-17-oxo-7,8,9,11,12,13,14,15,16,17-decahydro-6H-cyclopenta[a]phenanthren-15-yl)-N-(5-methylthiazol-2-yl)propanamide] | 92 | 74 | 1 |  | 
7 | Cc1cnc(NC(=O)CC[C@@H]2CC(=O)[C@@]3(C)CCC4c5cc(Br)c(O)c(Br)c5CCC4C23)s1 (stereo partly drawn) [Compound 58, 3-((13S,15R)-2,4-dibromo-3-hydroxy-13-methyl-17-oxo-7,8,9,11,12,13,14,15,16,17-decahydro-6H-cyclopenta[a]phenanthren-15-yl)-N-(5-methylthiazol-2-yl)propanamide] | 95 | 81 | 5 |  | 
8 | CC(=O)NCC(=O)Oc1ccc2c(c1)CCC1C2CC[C@]2(C)C(=O)C[C@@H](CCC(=O)Nc3ncc(C)s3)C12 (stereo partly drawn) [Compound 11, Acetylamino-acetic acid (13S,15R)-13-methyl-15-[2-(5-methylthiazol-2-ylcarbamoyl)-ethyl]-17-oxo-7,8,9,11,12,13,14,15,16,17-decahydro-6H-cyclopenta[a]phenanthren-3-yl ester] | 87 |  |  | 88 | 0% and 2%
9 | Cc1cnc(NC(=O)CC[C@@H]2CC(=O)[C@@]3(C)CCC4c5cc(CN(C)C)c(O)cc5CCC4C23)s1 (stereo partly drawn) [Compound 44, 3-((13S,15R)-2-((dimethylamino)methyl)-3-hydroxy-13-methyl-17-oxo-7,8,9,11,12,13,14,15,16,17-decahydro-6H-cyclopenta[a]phenanthren-15-yl)-N-(5-methylthiazol-2-yl)propanamide] | 91 |  | 2 |  | 
10 | Cc1cnc(NC(=O)CC[C@@H]2CC(=O)[C@@]3(C)CCC4c5ccc(O)c(N)c5CCC4C23)s1 (stereo partly drawn) [Compound 38, 3-((13S,15R)-4-amino-3-hydroxy-13-methyl-17-oxo-7,8,9,11,12,13,14,15,16,17-decahydro-6H-cyclopenta[a]phenanthren-15-yl)-N-(5-methylthiazol-2-yl)propanamide] | 87 |  | 9 |  | 
11 | Cc1cnc(NC(=O)CC[C@@H]2CC(=O)[C@@]3(C)CCC4c5ccc6ocnc6c5CCC4C23)s1 (stereo partly drawn) [Compound 46, 3-((7aS,10R)-7a-methyl-8-oxo-6,7,7a,8,9,10,10a,10b,11,12-decahydro-5bH-cyclopenta[7,8]phenanthro[1,2-d]oxazol-10-yl)-N-(5-methylthiazol-2-yl)propanamide] | 87 |  | 3 |  | 
12 | Cc1cnc(NC(=O)CC[C@@H]2CC(=O)[C@@]3(C)CCC4c5cc(CN6CCOCC6)c(O)cc5CCC4C23)s1 (stereo partly drawn) [Compound 42, 3-((13S,15R)-3-hydroxy-13-methyl-2-(morpholinomethyl)-17-oxo-7,8,9,11,12,13,14,15,16,17-decahydro-6H-cyclopenta[a]phenanthren-15-yl)-N-(5-methylthiazol-2-yl)propanamide] | 90 |  | 0 |  | 
13 | Cc1nc2cc3c(cc2o1)CCC1C3CC[C@]2(C)C(=O)C[C@@H](CCC(=O)Nc3ncc(C)s3)C12 (stereo partly drawn) [Compound 48, 3-((3R,12aS)-8,12a-dimethyl-1-oxo-2,3,3a,3b,4,5,10b,11,12,12a-decahydro-1H-cyclopenta[7,8]phenanthro[3,2-d]oxazol-3-yl)-N-(5-methylthiazol-2-yl)propanamide] | 91 |  | 2 |  | 
